According to patent US6900190B2, “Active substance combinations having insecticidal and acaricidal properties” (priority 2000, dated 2005):

Tested on: common spider mite (Tetranychus urticae)
Experiment: Tetranychus test (OP-resistant/spray treatment)
Assay type: in vivo
Details: single active compound, 0.32 ppm, spray treatment of infested bean plants (Phaseolus vulgaris), OP-resistant mites
From the text: The expected action for a given combination of two active compounds can be calculated as follows, using the formula of S. R. Colby, Weeds 15 (1967), 20-22: […]
If • X is the efficacy, expressed as % of the untreated control, when employing active compound A at an application rate of m g/ha or in a concentration of m ppm, • Y is the efficacy, expressed as % of the untreated control, when employing active compound B at an application rate of n g/ha or in a concentration of n ppm and • E is the efficacy, expressed as % of the untreated control, when employing active compounds A and B at application rates of m and n g/ha or in a concentration of m and n ppm, then [formula]
If the actual insecticidal kill rate exceeds the calculated value, the action of the combination is superadditive, i.e. a synergistic effect is present. In this case, the actually observed insecticidal kill rate must exceed the value calculated using the above formula for the expected insecticidal kill rate (E).
Tetranychus test (OP-resistant/spray treatment) […]
After the desired period of time, the effect in % is determined. […] The kill rates determined are calculated using Colby's formula.

SMILES | Kill rate in % after 14 d [%]
Cc1cc(C)c(C2=C(OC(=O)CC(C)(C)C)C3(CCCC3)OC2=O)c(C)c1 [Ex. (I-b-1)] | 0
COP(N)(=O)SC (centres unmarked) [Metamidophos, methamidophos] | 0
